In patent publication US11219621B2, “Methods for treating immunodeficiency disease” (X4 Pharmaceuticals, Inc., priority 2015, dated 2022):

What was measured:
[1] = target: T1, BLT1 (Homo sapiens, UniProt Q15722); details: cited from earlier work
T1 construct: expressed in transfected cells

[2] = human, in vivo
[3] = tested on: granulocyte-macrophage (CFU-GM), erythroid (BFU-E) and multipotential (CFU-GEMM) progenitor cells; assay: Progenitor/stem cell mobilization in mice after single subcutaneous injection; format: in vivo, C3H/HeJ mice; details: for BFU (BFU-E), Mean / GEMM (CFU-GEMM), Mean / GM (CFU-GM), Mean: progenitor cells per mL of blood
Experimental: All experiments were performed in […] mice. […] The progenitors were stimulated to form colonies in vitro with the combination of 1 U/mL rhu EPO, 50 ng/mL rmu SLF, 5% vol/vol pokeweed mitogen mouse spleen cell conditioned medium (PWMSCM), and 0.1 mM hemin. Plates were scored 7 days after incubation at 37° C., 5% CO2, lowered […] and in a humidified chamber.
In the first experiment (data shown in Table 6), mice received a dose of 5 mg/kg- and the number of progenitors in the circulating blood was measured at various time points (0.25, 0.5, 1, 2, 6 and 24 hours).

[4] = tested on: white blood cells (WBC), neutrophils, lymphocytes; assay: Hematologic effects of a single oral dose in the male Beagle dog; format: in vivo
Experimental: Three fasted male Beagle dogs received a single dose of […]-001 in aqueous solution by oral gavage at dose levels of 5, 15, and 35 mg/kg (1 dog per dose level) in a volume of 1 mL/kg. Blood samples (approximately 3 mL each) were obtained at multiple timepoints from each animal by direct venipuncture of the jugular vein and collected using Vacutainer® tubes containing K3EDTA as the anticoagulant. […] Blood samples were stored at ambient room temperature prior to automated differential analysis Body weights were determined prior to dosing on the day of test article administration. […] Hematology parameters included the following: White Blood Cell Count (WBC) Differential white blood cell count (absolute and relative) • Neutrophil • Lymphocytes • Monocytes • Eosinophils • Basophils • Large Unstained Cells (LUC) • Hematocrit (HCT) • Hemoglobin (HGB) • Mean Corpuscular Hemoglobin (MCH) • Mean Corpuscular Hemoglobin Concentration (MCHC) • Mean Corpuscular Volume (MCV) • Platelet Count (PLT) • Red Blood Cell Count (RBC) Results

[5] = target: CXCR4 (Homo sapiens, UniProt P61073); details: SDF-1α dose/response in calcium flux assay with increasing amounts of X4P-001; cited from earlier work
[6] = target: T2, CCR4 (Homo sapiens, UniProt P51679); details: cited from earlier work
T2 construct: expressed in transfected cells
T2 sequence (P51679 1-360): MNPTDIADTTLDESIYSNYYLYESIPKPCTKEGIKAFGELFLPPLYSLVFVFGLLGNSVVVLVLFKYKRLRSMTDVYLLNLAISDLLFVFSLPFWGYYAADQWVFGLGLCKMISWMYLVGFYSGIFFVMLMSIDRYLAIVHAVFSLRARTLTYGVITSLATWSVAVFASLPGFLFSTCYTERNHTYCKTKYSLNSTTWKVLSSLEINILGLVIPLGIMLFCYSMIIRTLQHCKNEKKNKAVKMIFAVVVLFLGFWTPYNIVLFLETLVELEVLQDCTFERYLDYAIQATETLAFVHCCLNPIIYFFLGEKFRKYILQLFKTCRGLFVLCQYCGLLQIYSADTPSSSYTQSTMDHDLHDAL

[7] = Table 6, 5 mg/kg s.c., @ - 2′ (2 h)
[8] = Table 6, 5 mg/kg s.c., @ - 6′ (6 h)
[9] = Table 6, 5 mg/kg s.c., @ - 15″ ([…])
[10] = Table 6, 5 mg/kg s.c., @ - 24′ (24 h)
[11] = Table 6, 5 mg/kg s.c., @ - 30″ (0.5 h)
[12] = Table 6, 5 mg/kg s.c., @ - 60″ (1 h)
[13] = Table 7, 1 hour post-injection, 1.5 mg/kg s.c.
[14] = Table 7, 1 hour post-injection, 5 mg/kg s.c.
[15] = Table 7, 1 hour post-injection, 10 mg/kg s.c.
[16] = Table 7, 1 hour post-injection, 20 mg/kg s.c.
[17] = Table 8, 5 mg/kg s.c., @ - 2′ (2 h)
[18] = Table 8, 5 mg/kg s.c., @ - 15″ ([…])
[19] = Table 8, 5 mg/kg s.c., @ - 30″ (0.5 h)
[20] = Table 8, 5 mg/kg s.c., @ - 60″ (1 h)
[21] = time course, 5 mg/kg s.c., 30-60 min.
[22] = single oral dose 5, 15, 35 mg/kg

T1 sequence (Q15722 whole entry): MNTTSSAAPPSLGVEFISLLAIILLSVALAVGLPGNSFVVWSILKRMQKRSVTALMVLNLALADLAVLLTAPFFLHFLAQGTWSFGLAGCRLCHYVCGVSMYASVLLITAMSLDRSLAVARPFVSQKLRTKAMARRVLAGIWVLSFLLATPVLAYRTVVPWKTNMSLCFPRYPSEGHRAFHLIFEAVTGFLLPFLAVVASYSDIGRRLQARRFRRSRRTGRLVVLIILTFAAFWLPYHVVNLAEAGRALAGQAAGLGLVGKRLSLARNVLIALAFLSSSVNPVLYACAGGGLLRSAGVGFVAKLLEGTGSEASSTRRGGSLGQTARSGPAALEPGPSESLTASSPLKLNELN
Chain of CXCR4 (P61073 whole entry): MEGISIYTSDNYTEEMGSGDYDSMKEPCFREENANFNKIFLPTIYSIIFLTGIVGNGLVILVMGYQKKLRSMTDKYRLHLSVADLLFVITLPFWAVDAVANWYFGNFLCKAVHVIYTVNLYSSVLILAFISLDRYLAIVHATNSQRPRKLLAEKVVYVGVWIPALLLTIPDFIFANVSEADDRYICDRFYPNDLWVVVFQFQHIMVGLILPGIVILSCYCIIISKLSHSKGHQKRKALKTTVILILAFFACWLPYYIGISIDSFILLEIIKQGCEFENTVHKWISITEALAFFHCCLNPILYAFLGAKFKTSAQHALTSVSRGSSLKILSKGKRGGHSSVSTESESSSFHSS

NCCCCN(Cc1nc2ccccc2[nH]1)[C@H]1CCCc2cccnc21 [X4P-001]
IC50 ([1]; BLT1, CHO-S-LTB4, LTB4, ligand binding, read-out: IC50 AMD11070): > 50 µM
Inhibitory effect on LTB4 binding to BLT1 [1]: little or no inhibitory effect
Volume of distribution (VL) [2]: high
BFU (BFU-E), Mean [3, 7]: 165.3
GEMM (CFU-GEMM), Mean [3, 7]: 68.9
GM (CFU-GM), Mean [3, 7]: 897.5
BFU (BFU-E), Mean [3, 8]: 99.9
GEMM (CFU-GEMM), Mean [3, 8]: 37.6
GM (CFU-GM), Mean [3, 8]: 387.5
BFU (BFU-E), Mean [3, 9]: 148.8
GEMM (CFU-GEMM), Mean [3, 9]: 65.6
GM (CFU-GM), Mean [3, 9]: 785.1
BFU (BFU-E), Mean [3, 10]: 84.6
GEMM (CFU-GEMM), Mean [3, 10]: 37.7
GM (CFU-GM), Mean [3, 10]: 386.3
BFU (BFU-E), Mean [3, 11]: 230.4
GEMM (CFU-GEMM), Mean [3, 11]: 99.6
GM (CFU-GM), Mean [3, 11]: 1273.8
BFU (BFU-E), Mean [3, 12]: 235.1
GEMM (CFU-GEMM), Mean [3, 12]: 103.1
GM (CFU-GM), Mean [3, 12]: 866.0
Nucleated Cellularity PBL-LD, Mean ([3]; Table 6 time course, 5 mg/kg s.c., @ - 2′ (2 h)): 8.29e+06 mL⁻¹
Nucleated Cellularity PBL-LD, Mean ([3]; Table 6 time course, 5 mg/kg s.c., @ - 6′ (6 h)): 5.66e+06 mL⁻¹
Nucleated Cellularity PBL-LD, Mean ([3]; Table 6 time course, 5 mg/kg s.c., @ - 15″ ([…])): 5.1e+06 mL⁻¹
Nucleated Cellularity PBL-LD, Mean ([3]; Table 6 time course, 5 mg/kg s.c., @ - 24′ (24 h)): 4.31e+06 mL⁻¹
Nucleated Cellularity PBL-LD, Mean ([3]; Table 6 time course, 5 mg/kg s.c., @ - 30″ (0.5 h)): 6.14e+06 mL⁻¹
Nucleated Cellularity PBL-LD, Mean ([3]; Table 6 time course, 5 mg/kg s.c., @ - 60″ (1 h)): 6.92e+06 mL⁻¹
BFU (BFU-E), Mean [3, 13]: 143.8
GM (CFU-GM), Mean [3, 13]: 428.0
BFU (BFU-E), Mean [3, 14]: 181.6
GEMM (CFU-GEMM), Mean [3, 14]: 141.0
GM (CFU-GM), Mean [3, 14]: 1119.8
GEMM (CFU-GEMM), Mean [3, 15]: 224.4
GM (CFU-GM), Mean [3, 15]: 1444.2
BFU (BFU-E), Mean [3, 16]: 261.4
GEMM (CFU-GEMM), Mean [3, 16]: 145.0
GM (CFU-GM), Mean [3, 16]: 1314.2
Nucleated Cellularity PBL-LD, Mean ([3]; Table 7 dose response, 1 hour post-injection, 1.5 mg/kg s.c.): 6.94e+06 mL⁻¹
Nucleated Cellularity PBL-LD, Mean ([3]; Table 7 dose response, 1 hour post-injection, 5 mg/kg s.c.): 7.65e+06 mL⁻¹
Nucleated Cellularity PBL-LD, Mean ([3]; Table 7 dose response, 1 hour post-injection, 10 mg/kg s.c.): 9.94e+06 mL⁻¹
BFU (BFU-E), Mean [3, 17]: 108.5
GEMM (CFU-GEMM), Mean [3, 17]: 62.4
GM (CFU-GM), Mean [3, 17]: 619.6
BFU (BFU-E), Mean [3, 18]: 188.9
GEMM (CFU-GEMM), Mean [3, 18]: 93.8
GM (CFU-GM), Mean [3, 18]: 588.3
GEMM (CFU-GEMM), Mean [3, 19]: 79.0
GM (CFU-GM), Mean [3, 19]: 705.9
GEMM (CFU-GEMM), Mean [3, 20]: 102.2
GM (CFU-GM), Mean [3, 20]: 761.4
Nucleated Cellularity PBL-LD, Mean ([3]; Table 8 comparison, 5 mg/kg s.c., @ - 2′ (2 h)): 9.71e+06 mL⁻¹
Nucleated Cellularity PBL-LD, Mean ([3]; Table 8 comparison, 5 mg/kg s.c., @ - 15″ ([…])): 8.04e+06 mL⁻¹
Nucleated Cellularity PBL-LD, Mean ([3]; Table 8 comparison, 5 mg/kg s.c., @ - 30″ (0.5 h)): 8.28e+06 mL⁻¹
Nucleated Cellularity PBL-LD, Mean ([3]; Table 8 comparison, 5 mg/kg s.c., @ - 60″ (1 h)): 7.34e+06 mL⁻¹
Peak increase of BFU-E over control (saline injection) [3, 21]: 2.49-2.54 fold
Peak increase of CFU-GEMM over control (saline injection) [3, 21]: 2.58-2.67 fold
Peak increase of CFU-GM over control (saline injection) ([3]; time course, 5 mg/kg s.c., 30 min.): 4.21 fold
Time of peak of nucleated cell mobilization ([3]; time course, 5 mg/kg s.c., approximately): 1-2 hours post-injection
Number of circulating progenitors ([3]; up to a dose of 5-10 mg/kg s.c.): dose-dependently increased
Peak elevations of WBC above baseline ([4]; 5 mg/kg dose level): 1.5 fold
Total circulating WBC, neutrophils, and lymphocytes, increase ([4]; 5 mg/kg, all three cell counts): 1.47 × baseline
Lymphocytes, increase ([4]; 15 mg/kg): 2.9 ×
Neutrophils, increase ([4]; 15 mg/kg): 1.8 ×
Lymphocytes, increase ([4]; 35 mg/kg): 1.9 ×
Neutrophils, increase ([4]; 35 mg/kg): 2.7 ×
Time at which increases were consistently apparent ([4]; 5, 15, and 35 mg/kg): 4 h
Time of peak of increases ([4]; 5, 15, and 35 mg/kg, typically, occasionally earlier): ~12 h
Peak elevations of WBC above baseline ([4]; 15 and 35 mg/kg dose levels): 1.8-2.9 fold
WBC, neutrophil, and lymphocyte counts at 24 hours ([4]; 15 and 35 mg/kg, with evidence of return to baseline): remained elevated
Other hematological effects [4, 22]: No other hematological effects
Time of maximal increases in WBC [4, 22]: 4-12 hours post-dose
Mode of inhibition of CXCR4 [5]: allosteric inhibitor
IC50 ([6]; CCR4, HEK293F-CCR4-Gαq15, TARC/CCL17, read-out: IC50 AMD11070): > 50 µM
Inhibitory effect on TARC mediated calcium flux (CCR4) [6]: little or no inhibitory effect
